From patent US20050250715A1, “Remedy” (priority 2002, published 2005)

System: NGF
Assay: Enhancing activity for NGF production in L-M cells (NGF in culture medium by enzyme immunoassay)
Type: cell-based, murine
Settings: 20 hours; for Amount of NGF Production (%): control = 100%
Description: (2) The enhancing activity for NGF production of the compound a was assayed. L-M cells (ATCC CCL-1.2) from murine fibroblasts were suspended in an M199 medium (manufactured by Bio Whittaker) containing 0.5% bactopeptone (manufactured by Gibco) so as to have a concentration of 1.5×10^5 cells/mL. The suspension was put in a 96 well plate in an amount of 0.1 mL each well, and the cells were aseptically cultured. After culturing the cells for 3 days, the medium was removed therefrom, and exchanged with an M199 medium containing 0.5% bovine serum albumin (manufactured by Sigma). The compound a was added thereto, and the cells were cultured for 20 hours. After the termination of the culture, the concentration of NGF in the culture medium was assayed by an enzyme immunoassay method (NGF Emax Immuno Assay System, manufactured by Promega). The experiment was carried out twice, and an average value was taken. […] The amount of NGF production of the control was 0.739 ng/mL. As to the control, the concentration in the culture medium was determined in the same manner except that the compound a was not added. It is the same as that of the following examples.

Compound	enhancing activity for NGF production (result in words)	Amount of NGF Production (%) (Concentration of Sample 1.0 mM)	Amount of NGF Production (%) (Concentration of Sample 2 mM)	Amount of NGF Production (%) (Concentration of Sample 0.5 mM)
CC1OC(OC2C(OC3C(OC4CCC5(C)C(CCC6(C)C5CC=C5C7CC(C)(C)CC(=O)C7(C)CCC56C)C4(C)CO)OC(C(=O)O)C(O)C3O)OC(CO)C(O)C2O)C(O)C(O)C1O [Compound l, 3-O-[α-L-rhamnopyranosyl(1→2)-β-D-galactopyranosyl-(1→2)-β-D-glucuronopyranosyl]-soyasapogenol E]	has enhancing activity for NGF production	145.9	531.2	
CC(=O)OC1COC(OC2C(O)COC(OC3C(O)C(C)(C)CC4C5=CCC6C7(C)CCC(OC8OC(C(=O)O)C(O)C(O)C8OC8OC(CO)C(O)C(O)C8OC8OC(CO)C(O)C(O)C8O)C(C)(CO)C7CCC6(C)C5(C)CCC43C)C2O)C(OC(C)=O)C1O [Compound e, 3-O-[β-D-glucopyranosyl(1→2)-β-D-galactopyranosyl-(1→2)-β-D-glucuronopyranosyl]-22-O-[2,4-di-O-acetyl-β-D-xylopyranosyl(1→3)-α-L-arabinopyranosyl]soyasapogenol A]	has an enhancing activity for NGF production	233.7	230.1	214.0
CC(=O)OC1COC(OC2C(O)COC(OC3C(O)C(C)(C)CC4C5=CCC6C7(C)CCC(OC8OC(C(=O)O)C(O)C(O)C8OC8OC(CO)C(O)C(O)C8OC8OC(CO)C(O)C(O)C8O)C(C)(CO)C7CCC6(C)C5(C)CCC43C)C2O)C(O)C1OC(C)=O [Compound f, 3-O-[β-D-glucopyranosyl(1→2)-β-D-galactopyranosyl-(1→2)-β-D-glucuronopyranosyl]-22-O-[3,4-di-O-acetyl-β-D-xylopyranosyl(1→3)-α-L-arabinopyranosyl]soyasapogenol A]	has an enhancing activity for NGF production	208.8	218.5	204.5
CC(=O)OCC1OC(OC2C(O)COC(OC3C(O)C(C)(C)CC4C5=CCC6C7(C)CCC(OC8OC(C(=O)O)C(O)C(O)C8OC8OC(CO)C(O)C(O)C8OC8OC(CO)C(O)C(O)C8O)C(C)(CO)C7CCC6(C)C5(C)CCC43C)C2O)C(O)C(OC(C)=O)C1OC(C)=O [Compound g, 3-O-[β-D-glucopyranosyl(1→2)-β-D-galactopyranosyl-(1→2)-β-D-glucuronopyranosyl]-22-O-[3,4,6-tri-O-acetyl-β-D-glucopyranosyl(1→3)-α-L-arabinopyranosyl]soyasapogenol A]	has an enhancing activity for NGF production	277.2	247.6	295.4
CC(=O)OCC1OC(OC2C(O)COC(OC3C(O)C(C)(C)CC4C5=CCC6C7(C)CCC(OC8OC(C(=O)O)C(O)C(O)C8OC8OC(CO)C(O)C(O)C8OC8OC(CO)C(O)C(O)C8O)C(C)(CO)C7CCC6(C)C5(C)CCC43C)C2O)C(OC(C)=O)C(OC(C)=O)C1OC(C)=O [Compound h, 3-O-[β-D-glucopyranosyl(1→2)-β-D-galactopyranosyl-(1→2)-β-D-glucuronopyranosyl]-22-O-[2,3,4,6-tetra-O-acetyl-β-D-glucopyranosyl(1→3)-α-L-arabinopyranosyl]soyasapogenol A]	has enhancing activity for NGF production	301.7	307.2	273.3
CC(=O)OC1COC(OC2C(O)COC(OC3C(O)C(C)(C)CC4C5=CCC6C7(C)CCC(OC8OC(C(=O)O)C(O)C(O)C8OC8OC(CO)C(O)C(O)C8OC8OC(CO)C(O)C(O)C8O)C(C)(CO)C7CCC6(C)C5(C)CCC43C)C2O)C(OC(C)=O)C1OC(C)=O [Compound m, 3-O-[β-D-glucopyranosyl(1→2)-β-D-galactopyranosyl-(1→2)-β-D-glucuronopyranosyl]-22-O-[2,3,4-tri-O-acetyl-β-D-xylopyranosyl(1→3)-α-L-arabinopyranosyl]soyasapogenol A]	has enhancing activity for NGF production	250.9	233.4	263.3
CC1(C)CC(=O)C2(C)CCC3(C)C(=CCC4C5(C)CCC(OC6OC(C(=O)O)C(O)C(O)C6OC6OC(CO)C(O)C(O)C6OC6OC(CO)C(O)C(O)C6O)C(C)(CO)C5CCC43C)C2C1 [Compound k, 3-O-[β-D-glucopyranosyl(1→2)-β-D-galactopyranosyl-(1→2)-β-D-glucuronopyranosyl]-soyasapogenol E]	has enhancing activity for NGF production	115.9	456.3	
C[C@@H]1O[C@@H](O[C@H]2[C@H](O[C@H]3[C@H](O[C@H]4CC[C@@]5(C)[C@@H](CC[C@]6(C)[C@@H]5CC=C5[C@@H]7CC(C)(C)C[C@@H](O)[C@]7(C)CC[C@]56C)[C@@]4(C)CO)O[C@H](C(=O)O)[C@@H](O)[C@@H]3O)O[C@H](CO)[C@H](O)[C@@H]2O)[C@H](O)[C@H](O)[C@H]1O [Compound j, 3-O-[α-L-rhamnopyranosyl(1→2)-β-D-galactopyranosyl-(1→2)-β-D-glucuronopyranosyl]-soyasapogenol B]	has enhancing activity for NGF production	176.4	212.5	138.2
CC(=O)OC1C(O)COC(OC2C(O)COC(OC3C(O)C(C)(C)CC4C5=CCC6C7(C)CCC(OC8OC(C(=O)O)C(O)C(O)C8OC8OC(CO)C(O)C(O)C8OC8OC(CO)C(O)C(O)C8O)C(C)(CO)C7CCC6(C)C5(C)CCC43C)C2O)C1O [Compound b, 3-O-[β-D-glucopyranosyl(1→2)-β-D-galactopyranosyl-(1→2)-β-D-glucuronopyranosyl]-22-O-[3-O-acetyl-β-D-xylopyranosyl(1→3)-α-L-arabinopyranosyl]soyasapogenol A]	has an enhancing activity for NGF production	251.2	272.3	220.9
CC(=O)OC1C(O)COC(OC2C(O)COC(OC3C(O)C(C)(C)CC4C5=CCC6C7(C)CCC(OC8OC(C(=O)O)C(O)C(O)C8OC8OC(CO)C(O)C(O)C8OC8OC(CO)C(O)C(O)C8O)C(C)(CO)C7CCC6(C)C5(C)CCC43C)C2O)C1OC(C)=O [Compound d, 3-O-[β-D-glucopyranosyl(1→2)-β-D-galactopyranosyl-(1→2)-β-D-glucuronopyranosyl]-22-O-[2,3-di-O-acetyl-β-D-xylopyranosyl(1→3)-α-L-arabinopyranosyl]soyasapogenol A]	has an enhancing activity for NGF production	281.1	276.5	255.8
